Data as given in ChEMBL document CHEMBL5223177, “Pyrazole Ureas as Low Dose, CNS Penetrant Glucosylceramide Synthase Inhibitors for the Treatment of Parkinson's Disease” (ACS Med Chem Lett, 2023).
Substitutions are numbered along the chain they refer to. Calls of active or inactive are those of the source. No cut-off for these calls is given here.

Assays:
[1] = Bioavailability in rat at 5 to 10 mg/kg, po or 0.05 to 2 mg/kg, iv; format: ADME, organism-based; details: in vivo, dose 5-10 mg/kg
[2] = Unbound fraction in dog plasma; format: ADME, cell-free, Canis lupus familiaris
[3] = Unbound fraction in human plasma; format: ADME, cell-free
Cytochrome P450 2C9 = Cytochrome P450 2C9 (Homo sapiens, UniProt P11712); assay: Inhibition of CYP2C9 (unknown origin); format: ADME
Cytochrome P450 2D6 = Cytochrome P450 2D6 (Homo sapiens, UniProt P10635); assay: Inhibition of CYP2D6 (unknown origin); format: ADME
[4] = target: T1, Nuclear receptor subfamily 1 group I member 2 (Homo sapiens, UniProt O75469); assay: Activation of PXR (unknown origin)
T1 sequence (O75469 whole entry): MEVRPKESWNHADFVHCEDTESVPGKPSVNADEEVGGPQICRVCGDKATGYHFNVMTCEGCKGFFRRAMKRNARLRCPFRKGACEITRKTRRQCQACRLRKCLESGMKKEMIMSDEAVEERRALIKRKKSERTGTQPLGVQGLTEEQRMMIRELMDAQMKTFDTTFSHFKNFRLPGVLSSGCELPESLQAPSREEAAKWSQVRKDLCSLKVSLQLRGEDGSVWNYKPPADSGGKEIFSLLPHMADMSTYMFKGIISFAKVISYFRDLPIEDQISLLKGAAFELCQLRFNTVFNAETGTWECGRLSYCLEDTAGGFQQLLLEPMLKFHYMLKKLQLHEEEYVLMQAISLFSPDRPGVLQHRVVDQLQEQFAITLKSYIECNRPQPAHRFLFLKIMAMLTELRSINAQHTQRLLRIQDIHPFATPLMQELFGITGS

Homo sapiens = species on record: Homo sapiens; assay: Inhibition of CYP2C9 (unknown origin) relative to control
[5] = target: Voltage-gated inwardly rectifying potassium channel KCNH2 (Homo sapiens, UniProt Q12809); assay: Inhibition of human ERG; format: toxicity
[6] = target: T2, Muscarinic acetylcholine receptor M5 (Homo sapiens, UniProt P08912); assay: Inhibition of human muscarinic M5 receptor
T2 sequence (P08912 whole entry): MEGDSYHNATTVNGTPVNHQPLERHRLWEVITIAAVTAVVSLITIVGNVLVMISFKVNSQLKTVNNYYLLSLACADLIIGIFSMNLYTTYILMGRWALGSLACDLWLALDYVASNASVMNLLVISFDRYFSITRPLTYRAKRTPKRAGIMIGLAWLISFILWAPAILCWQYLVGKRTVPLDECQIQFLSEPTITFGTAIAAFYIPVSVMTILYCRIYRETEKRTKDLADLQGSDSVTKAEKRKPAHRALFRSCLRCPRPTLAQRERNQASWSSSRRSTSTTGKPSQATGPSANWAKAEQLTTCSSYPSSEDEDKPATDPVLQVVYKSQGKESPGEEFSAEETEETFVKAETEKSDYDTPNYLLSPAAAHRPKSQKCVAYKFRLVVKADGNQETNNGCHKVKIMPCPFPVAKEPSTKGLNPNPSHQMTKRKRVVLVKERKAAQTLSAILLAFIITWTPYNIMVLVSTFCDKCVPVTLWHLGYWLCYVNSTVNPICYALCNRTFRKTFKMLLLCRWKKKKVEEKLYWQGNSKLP

[7] = target: Neuronal acetylcholine receptor subunit alpha-3 (Homo sapiens, UniProt P30926+P32297); assay: Inhibition of human alpha3beta4 nAChR
[8] = Clearance in rat; format: ADME; details: in vivo
[9] = Intrinsic clearance in rat; format: ADME
[10] = Intrinsic clearance in dog; format: ADME, Canis lupus familiaris
[11] = Unbound volume of distribution at steady state in dog; format: ADME, Canis lupus familiaris; details: in vivo
[12] = Bioavailability in dog; format: ADME, organism-based, Canis lupus familiaris; details: in vivo
[13] = Protection against PFFs induced alpha-synuclein aggregation in human iPSC derived neurons assessed as reduction in phosphorylated S129 alpha-synuclein level at 1000 nM pretreated for 1 day followed by PFFs stimulation and measured after 14 days by immunocytochemistry analysis; format: functional, Neuron; set-up: scale not given: the % may be the effect or the level left; details: time 15 day
Neuron = assay: Protection against PFFs induced lysosomal impairment in human iPSC derived neurons assessed as increase in lysosomal hydrolysis pretreated for 1 day followed by PFFs stimulation and measured after 14 days by immunocytochemistry analysis; format: functional, cell-based; details: time 15.0 day
[14] = target: T3, Ceramide glucosyltransferase (Homo sapiens) (UniProt Q16739); assay: (§1) Inhibition of GCS in human iPSC derived neurons assessed as reduction in […] GlcCer levels; format: cell-based; details: Neuron
T3 sequence (whole entry): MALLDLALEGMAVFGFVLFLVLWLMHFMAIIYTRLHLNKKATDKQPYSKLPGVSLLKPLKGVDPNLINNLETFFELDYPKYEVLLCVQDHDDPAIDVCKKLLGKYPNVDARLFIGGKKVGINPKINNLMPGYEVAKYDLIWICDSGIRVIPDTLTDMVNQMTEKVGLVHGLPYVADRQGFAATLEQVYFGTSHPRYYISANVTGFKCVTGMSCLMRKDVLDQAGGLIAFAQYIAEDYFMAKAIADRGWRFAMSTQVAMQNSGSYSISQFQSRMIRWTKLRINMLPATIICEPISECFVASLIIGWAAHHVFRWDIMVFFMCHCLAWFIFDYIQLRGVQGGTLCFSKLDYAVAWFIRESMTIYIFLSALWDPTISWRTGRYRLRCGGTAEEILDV

[15] = target: T4, Ceramide glucosyltransferase (Homo sapiens, UniProt Q16739); assay: as §1; format: cell-based, Neuron
T4 sequence (Q16739 whole entry): T3 sequence (whole entry)

[16] = Protection against PFFs induced alpha-synuclein aggregation in human iPSC derived neurons assessed as reduction in phosphorylated S129 alpha-synuclein level pretreated for 1 day followed by PFFs stimulation and measured after 14 days by immunocytochemistry analysis; format: functional, cell-based; details: Neuron
[17] = target: T5, Ceramide glucosyltransferase (Mus musculus) (UniProt O88693); assay: In vivo inhibition of GCS in C57 mouse assessed as reduction in brain GlcCer d18:1/18:0 concentration at 30 to 100 mg/kg, po measured after 8 hrs by LC-MS/MS method; format: functional, organism-based; details: dose 30-100 mg/kg
T5 sequence (whole entry): T3 sequence (whole entry) with L8Q, V13L, L20V, A29S, G131A, Y196S, A251S

[18] = target: T5, Ceramide glucosyltransferase (Mus musculus); assay: (§2) In vivo inhibition of GCS in C57 mouse assessed as reduction in brain GlcCer d18:1/18:0 concentration measured after 8 hrs by LC-MS/MS method; format: functional
[19] = target: T6, Ceramide glucosyltransferase (Mus musculus, UniProt O88693); assay: as §2; format: functional
T6 sequence (O88693 whole entry): T3 sequence (whole entry) with L8Q, V13L, L20V, A29S, G131A, Y196S, A251S

Chain of Cytochrome P450 2C9 (P11712 whole entry): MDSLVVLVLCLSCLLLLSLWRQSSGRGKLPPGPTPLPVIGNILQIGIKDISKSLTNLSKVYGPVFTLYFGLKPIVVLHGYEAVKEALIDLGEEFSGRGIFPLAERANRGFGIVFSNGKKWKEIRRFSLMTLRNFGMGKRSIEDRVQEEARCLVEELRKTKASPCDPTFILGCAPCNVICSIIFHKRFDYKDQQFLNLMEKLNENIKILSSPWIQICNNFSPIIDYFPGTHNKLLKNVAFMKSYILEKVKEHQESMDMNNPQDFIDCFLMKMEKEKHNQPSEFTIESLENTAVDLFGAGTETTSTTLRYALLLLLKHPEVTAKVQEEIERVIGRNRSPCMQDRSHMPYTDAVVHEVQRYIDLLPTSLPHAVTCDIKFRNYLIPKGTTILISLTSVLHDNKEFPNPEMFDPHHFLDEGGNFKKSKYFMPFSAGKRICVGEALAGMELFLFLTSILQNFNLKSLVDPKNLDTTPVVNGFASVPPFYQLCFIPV
Chain of Voltage-gated inwardly rectifying potassium channel KCNH2 (Q12809 whole entry): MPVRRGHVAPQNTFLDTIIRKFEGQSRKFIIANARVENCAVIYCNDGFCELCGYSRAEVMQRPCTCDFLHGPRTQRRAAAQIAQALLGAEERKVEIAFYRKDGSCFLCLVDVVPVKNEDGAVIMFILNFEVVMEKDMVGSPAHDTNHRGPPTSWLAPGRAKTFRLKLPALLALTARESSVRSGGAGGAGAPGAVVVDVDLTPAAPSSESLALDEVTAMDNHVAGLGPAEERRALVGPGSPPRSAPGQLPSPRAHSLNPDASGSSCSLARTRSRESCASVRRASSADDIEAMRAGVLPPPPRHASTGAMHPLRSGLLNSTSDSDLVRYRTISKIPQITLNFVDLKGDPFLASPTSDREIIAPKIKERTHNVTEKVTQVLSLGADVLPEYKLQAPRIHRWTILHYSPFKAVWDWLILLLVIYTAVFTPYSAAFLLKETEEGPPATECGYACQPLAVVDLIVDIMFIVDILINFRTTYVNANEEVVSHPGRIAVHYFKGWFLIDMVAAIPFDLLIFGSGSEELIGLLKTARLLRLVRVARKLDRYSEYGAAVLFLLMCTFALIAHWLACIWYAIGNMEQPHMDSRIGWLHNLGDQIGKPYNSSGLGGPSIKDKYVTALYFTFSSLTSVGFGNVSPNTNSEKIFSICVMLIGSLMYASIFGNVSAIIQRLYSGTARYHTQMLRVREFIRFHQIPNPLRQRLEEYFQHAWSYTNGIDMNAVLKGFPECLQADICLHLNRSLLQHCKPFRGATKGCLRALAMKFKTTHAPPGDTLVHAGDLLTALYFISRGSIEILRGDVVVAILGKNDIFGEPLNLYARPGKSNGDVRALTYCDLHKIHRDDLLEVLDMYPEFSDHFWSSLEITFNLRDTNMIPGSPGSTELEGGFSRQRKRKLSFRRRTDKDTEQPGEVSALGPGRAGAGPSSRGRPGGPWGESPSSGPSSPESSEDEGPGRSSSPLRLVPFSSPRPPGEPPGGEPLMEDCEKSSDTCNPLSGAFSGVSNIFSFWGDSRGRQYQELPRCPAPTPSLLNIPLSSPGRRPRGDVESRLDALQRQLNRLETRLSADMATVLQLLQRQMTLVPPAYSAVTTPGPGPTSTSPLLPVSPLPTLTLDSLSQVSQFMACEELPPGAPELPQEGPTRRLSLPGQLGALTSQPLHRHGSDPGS
Chain of Cytochrome P450 2D6 (P10635 whole entry): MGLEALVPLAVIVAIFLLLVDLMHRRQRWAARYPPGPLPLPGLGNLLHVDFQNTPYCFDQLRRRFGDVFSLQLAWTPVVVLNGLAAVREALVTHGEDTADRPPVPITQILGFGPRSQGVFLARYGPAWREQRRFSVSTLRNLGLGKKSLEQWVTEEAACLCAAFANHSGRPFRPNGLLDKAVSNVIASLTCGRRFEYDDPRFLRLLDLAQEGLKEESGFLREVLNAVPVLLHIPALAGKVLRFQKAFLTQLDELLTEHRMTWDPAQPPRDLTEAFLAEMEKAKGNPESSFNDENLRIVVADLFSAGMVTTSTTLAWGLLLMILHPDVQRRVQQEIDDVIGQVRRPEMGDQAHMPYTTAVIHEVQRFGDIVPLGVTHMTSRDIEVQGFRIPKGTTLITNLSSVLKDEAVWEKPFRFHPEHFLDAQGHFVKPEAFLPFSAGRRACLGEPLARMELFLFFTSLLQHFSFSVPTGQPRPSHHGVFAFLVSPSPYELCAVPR
Chain of Neuronal acetylcholine receptor subunit alpha-3 (P32297 whole entry, one chain of several): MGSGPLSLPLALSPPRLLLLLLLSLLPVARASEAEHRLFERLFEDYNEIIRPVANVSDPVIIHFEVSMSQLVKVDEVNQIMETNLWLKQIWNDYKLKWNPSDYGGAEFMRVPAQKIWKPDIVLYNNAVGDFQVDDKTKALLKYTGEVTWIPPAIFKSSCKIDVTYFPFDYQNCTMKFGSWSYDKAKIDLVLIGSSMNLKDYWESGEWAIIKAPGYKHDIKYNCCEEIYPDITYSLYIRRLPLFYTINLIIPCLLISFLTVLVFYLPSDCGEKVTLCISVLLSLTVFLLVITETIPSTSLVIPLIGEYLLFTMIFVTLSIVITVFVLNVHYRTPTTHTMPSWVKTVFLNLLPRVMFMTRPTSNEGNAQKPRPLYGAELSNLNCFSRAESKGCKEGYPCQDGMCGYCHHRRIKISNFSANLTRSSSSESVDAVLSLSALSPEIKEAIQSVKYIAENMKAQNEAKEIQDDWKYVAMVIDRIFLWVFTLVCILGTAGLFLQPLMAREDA

Question: Which bioavailability [1] does the source give for Cl.O=C(N1CCN2CCC1CC2)n1nc(-n2cc(C(F)(F)F)cn2)c2c1COCC2 here?
Answer: 95%

Question: What about the fraction unbound [2] of the same compound?
Answer: 0.27

Question: And the fraction unbound [3]?
Answer: 0.03

Question: And the IC50 (Cytochrome P450 2C9)?
Answer: > 50 µM

Question: What about the IC50 (Cytochrome P450 2D6) of the same compound?
Answer: > 50 µM

Question: And the EC50 [4]?
Answer: > 30 µM

Question: What about the Emax (Homo sapiens) of the same compound?
Answer: 26%

Question: And the IC50 [5]?
Answer: 4.1 µM

Question: And the IC50 [6]?
Answer: 10.2 µM

Question: And the IC50 [7]?
Answer: 2.2 µM

Question: And the clearance [8]?
Answer: 6.1 mL/min/kg

Question: And the CLint scaled [9]?
Answer: 55 mL/min/kg

Question: What about the CLint scaled [10] of the same compound?
Answer: 75 mL/min/kg

Question: What about the fVdss [11] of the same compound?
Answer: 49 L/kg

Question: And the bioavailability [12]?
Answer: 48%

Question: What about the Activity [13] of the same compound?
Answer: 20%

Question: What about the Activity (Neuron) of the same compound?
Answer: Dose-Dependent Effect

Question: What about the inhibition [14] of the same compound?
Answer: Dose-Dependent Effect

Question: What about the IC50 [15] of the same compound?
Answer: 0.0017 µM

Question: What about the IC50 [16] of the same compound?
Answer: 0.017 µM

Question: For O=C(N1CCN2CCC1CC2)n1nc(-c2ccc(F)cc2)c2c1COCC2, which bioavailability [1] is on record?
Answer: 73%

Question: What about the fraction unbound [2] of the same compound?
Answer: 0.3

Question: What about the fraction unbound [3] of the same compound?
Answer: 0.03

Question: And the IC50 (Cytochrome P450 2C9)?
Answer: > 50 µM

Question: And the IC50 (Cytochrome P450 2D6)?
Answer: > 50 µM

Question: What about the EC50 [4] of the same compound?
Answer: > 30 µM

Question: What about the Emax (Homo sapiens) of the same compound?
Answer: 17%

Question: What about the IC50 [5] of the same compound?
Answer: 2 µM

Question: And the IC50 [6]?
Answer: 10.2 µM

Question: What about the IC50 [7] of the same compound?
Answer: 2.2 µM

Question: And the clearance [8]?
Answer: 8.5 mL/min/kg

Question: What about the CLint scaled [9] of the same compound?
Answer: 90 mL/min/kg

Question: What about the CLint scaled [10] of the same compound?
Answer: 6870 mL/min/kg

Question: And the fVdss [11]?
Answer: 21 L/kg

Question: What about the bioavailability [12] of the same compound?
Answer: 21%

Question: And the Activity [17]?
Answer: Active

Question: And the Activity [18]?
Answer: Dose-Dependent Effect

Question: And the fEC50 [18]?
Answer: 64 nM

Question: What about the EC50 [19] of the same compound?
Answer: 0.32 µM
